According to ChEMBL document CHEMBL2417374, “Resistance by allostery: a novel perspective for eg5-targeted drug design” (J Med Chem, 2013):
Calls of active or inactive are those of the source. The rule behind the calls is not given here.

System: T1, Kinesin-like protein KIF11 (Homo sapiens), P52732 [D130V,A133D]
T1 sequence (whole entry): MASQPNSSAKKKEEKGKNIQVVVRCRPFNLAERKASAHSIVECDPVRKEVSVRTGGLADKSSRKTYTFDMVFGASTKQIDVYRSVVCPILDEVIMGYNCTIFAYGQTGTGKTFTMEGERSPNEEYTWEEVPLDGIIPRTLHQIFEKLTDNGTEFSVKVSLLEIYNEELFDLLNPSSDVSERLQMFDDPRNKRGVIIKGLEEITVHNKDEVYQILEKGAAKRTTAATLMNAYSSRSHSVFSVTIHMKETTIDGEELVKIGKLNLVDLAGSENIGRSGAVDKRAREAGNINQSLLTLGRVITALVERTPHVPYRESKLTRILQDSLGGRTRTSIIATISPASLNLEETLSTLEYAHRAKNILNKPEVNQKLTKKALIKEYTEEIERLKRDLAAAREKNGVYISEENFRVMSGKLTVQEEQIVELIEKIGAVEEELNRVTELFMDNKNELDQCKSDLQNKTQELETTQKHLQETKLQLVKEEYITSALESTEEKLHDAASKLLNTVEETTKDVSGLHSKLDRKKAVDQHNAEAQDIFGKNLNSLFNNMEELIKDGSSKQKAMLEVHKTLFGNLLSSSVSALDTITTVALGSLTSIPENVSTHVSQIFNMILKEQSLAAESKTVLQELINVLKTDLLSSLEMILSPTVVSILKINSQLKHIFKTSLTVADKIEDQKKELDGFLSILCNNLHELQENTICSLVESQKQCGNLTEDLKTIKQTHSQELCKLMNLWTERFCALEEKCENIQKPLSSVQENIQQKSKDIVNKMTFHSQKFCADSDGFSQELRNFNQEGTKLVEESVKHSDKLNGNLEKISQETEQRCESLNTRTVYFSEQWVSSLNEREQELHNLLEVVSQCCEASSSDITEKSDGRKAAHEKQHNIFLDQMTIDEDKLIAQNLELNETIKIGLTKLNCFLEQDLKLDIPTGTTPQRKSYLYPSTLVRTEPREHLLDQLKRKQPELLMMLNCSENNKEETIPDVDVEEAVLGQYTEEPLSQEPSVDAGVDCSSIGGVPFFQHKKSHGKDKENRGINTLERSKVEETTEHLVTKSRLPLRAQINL
Assay: Partial inhibition of MT-stimulated ATPase activity of Eg5 D130V/A133D (unknown origin)

inhibition: Active
Compound: Cc1ccc(C(=O)N(CCCN)[C@@H](c2oc3cc(Cl)ccc3c(=O)c2Cc2ccccc2)C(C)C)cc1
